According to patent publication US5821246A, “Aniline derivatives” (Zeneca Limited, priority 1994, dated 1998):
Where a name gives a salt, the structure may show the parent alone.

How the values were obtained:
[1] = target: T1, EGF receptor tyrosine kinase (Homo sapiens, UniProt P00533); test: Test (a): in vitro inhibition of the enzyme EGF receptor tyrosine kinase (partially purified from A-431 cells); type: biochemical; details: EGF receptor tyrosine kinase from A-431 cells
T1 construct: Receptor tyrosine kinase was obtained in partially purified form from A-431 cells; endogenous in cells; host or cells: A-431 cells (human vulval carcinoma)
Experimental: (a) An in vitro assay which determines the ability of a test compound to inhibit the enzyme EGF receptor tyrosine kinase. Receptor tyrosine kinase was obtained in partially purified form from A-431 cells (derived from human vulval carcinoma) by procedures related to those described by Carpenter et al., J. Biol. Chem., 1979, 254, 4884, Cohen et al., J. Biol. Chem., 1982, 257, 1523 and by Braun et al., J. Biol. Chem., 1984, 259, 2051.
A-431 cells were grown to confluence using Dulbecco's modified Eagle's medium (DHEM) containing 5% fetal calf serum (FCS). The obtained cells were homogenised in a hypotonic borate/EDTA buffer at pH 10.1. The homogenate was centrifuged at 400 g for 10 minutes at 0°-4° C. The supernatant was centrifuged at 25,000 g for 30 minutes at 0°-4° C. The pelleted material was suspended in 30 mM Hepes buffer at pH 7.4 containing 5% glycerol, 4 mM benzamidine and 1% Triton X-100, stirred for 1 hour at 0°-4° C., and recentrifuged at 100,000 g for 1 hour at 0°-4° C. The supernatant, containing solubilised receptor tyrosine kinase, was stored in liquid nitrogen.
For test purposes 40 μl of the enzyme solution so obtained was added to a mixture of 400 μl of a mixture of 150 mM Hepes buffer at pH 7.4, 500 μM sodium orthovanadate, 0.1% Triton X-100, 10% glycerol, 200 μl water, 80 μl of 25 mH DTT and 80 μl of a mixture of 12.5 mM manganese chloride, 125 mM magnesium chloride and distilled water. There was thus obtained the test enzyme solution.
Each test compound was dissolved in dimethylsulphoxide (DMSO) to give a 50 mM solution which was diluted with 40 mM Hepes buffer containing 0.1% Triton X-100, 10% glycerol and 10% DMSO to give a 500 μM solution. Equal volumes of this solution and a solution of epidermal growth factor (EGF; 20 μg/ml) were mixed.
[γ-^32 P]ATP (3000 Ci/mM, 250 μCi) was diluted to a volume of 2 ml by the addition of a solution of ATP (100 μM) in distilled water. An equal volume of a 4 mg/ml solution of the peptide Arg-Arg-Leu-Ile-Glu-Asp-Ala-Glu-Tyr-Ala-Ala-Arg-Gly in a mixture of 40 mH Hepes buffer at pH 7.4, 0.1% Triton X-100 and 10% glycerol was added.
The test compound/EGF mixture solution (5 μl) was added to the test enzyme solution (10 μl) and the mixture was incubated at 0°-4° C. for 30 minutes. The ATP/peptide mixture (10 μl) was added and the mixture was incubated at 25° C. for 10 minutes. The phosphorylation reaction was terminated by the addition of 5% trichloroacetic acid (40 μl) and bovine serum albumin (BSA; 1 mg/ml, 5 μl). The mixture was allowed to stand at 4° C. for 30 minutes and then centrifuged. An aliquot (40 μl) of the supernatant was placed onto a strip of Whatman p 81 phosphocellulose paper. The strip was washed in 75 mH phosphoric acid (4×10 ml) and blotted dry. Radioactivity present in the filter paper was measured using a liquid scintillation counter (Sequence A). The reaction sequence was repeated in the absence of the EGF (Sequence B) and again in the absence of the test compound (Sequence C).
Receptor tyrosine kinase inhibition was calculated as follows: [formula]
The extent of inhibition was then determined at a range of concentrations of test compound to give an IC50 value.

[2] = test system: liver hepatocyte growth caused by the administration of the growth factor TGFα; test: Test (c): in vivo inhibition of TGFα-stimulated liver hepatocyte growth in male rats (BrdU uptake); details: Rattus norvegicus, usually oral, TGFα 400 μg/kg subcutaneously, approximate ED50, BrdU uptake
Experimental: (c) An in vivo assay in a group of male rats which determines the ability of a test compound (usually administered orally as a ball-milled suspension in 0.5% polysorbate) to inhibit the stimulation of liver hepatocyte growth caused by the administration of the growth factor TGFα (400 μg/kg subcutaneously, usually dosed twice, 3 and 7 hours respectively after the administration of the test compound).
In a control group of rats, the administration of TGFα causes on average a 5-fold stimulation of liver hepatocyte growth.
Cell-growth in the control and test animals is determined as follows:
On the morning of the day after the dosing of the test compound (or 0.5% polysorbate in the control group), the animals are dosed with bromodeoxyuridine (BrdU; 100 mg/kg intraperitoneally). The animals are killed four hours later and the livers are excised.
Further tests were carried out using a range of doses of the test compounds to allow the calculation of an approximate ED50 value for the inhibition of liver hepatocyte proliferation as determined by inhibition of the uptake of BrdU.

[3] = test system: human naso-pharyngeal cancer cell line KB; test: Test (b): inhibition of the EGF-stimulated growth of the human naso-pharyngeal cancer cell line KB; type: cell-based; details: 72 h, KB cells, EGF (10 ng/ml), 3 days, MTT
Experimental: (b) An in vitro assay which determines the ability of a test compound to inhibit the EGF-stimulated growth of the human naso-pharyngeal cancer cell line KB.
KB cells were seeded into wells at a density of 1×10^4 -1.5×10^4 cells per well and grown for 24 hours in DHEM supplemented with 5% FCS (charcoal-stripped). Cell growth was determined after incubation for 3 days by the extent of metabolism of MTT tetrazolium dye to furnish a bluish colour. Cell growth was then determined in the presence of EGF (10 ng/ml) or in the presence of EGF (10 ng/ml) and a test compound at a range of concentrations. An IC50 value could then be calculated.

[4] = test system: EGF receptor tyrosine kinase; details: Fry et al., Science, 1994, 265, 1093; cited from earlier work
[5] = test system: another carcinoma which does not express EGF receptor tyrosine kinase; details: Toi et al., 1990; cited from earlier work
[6] = test system: human mammary carcinoma which expresses EGF receptor tyrosine kinase; details: athymic nude mice; Toi et al., 1990; cited from earlier work

T1 sequence (P00533 25-1210): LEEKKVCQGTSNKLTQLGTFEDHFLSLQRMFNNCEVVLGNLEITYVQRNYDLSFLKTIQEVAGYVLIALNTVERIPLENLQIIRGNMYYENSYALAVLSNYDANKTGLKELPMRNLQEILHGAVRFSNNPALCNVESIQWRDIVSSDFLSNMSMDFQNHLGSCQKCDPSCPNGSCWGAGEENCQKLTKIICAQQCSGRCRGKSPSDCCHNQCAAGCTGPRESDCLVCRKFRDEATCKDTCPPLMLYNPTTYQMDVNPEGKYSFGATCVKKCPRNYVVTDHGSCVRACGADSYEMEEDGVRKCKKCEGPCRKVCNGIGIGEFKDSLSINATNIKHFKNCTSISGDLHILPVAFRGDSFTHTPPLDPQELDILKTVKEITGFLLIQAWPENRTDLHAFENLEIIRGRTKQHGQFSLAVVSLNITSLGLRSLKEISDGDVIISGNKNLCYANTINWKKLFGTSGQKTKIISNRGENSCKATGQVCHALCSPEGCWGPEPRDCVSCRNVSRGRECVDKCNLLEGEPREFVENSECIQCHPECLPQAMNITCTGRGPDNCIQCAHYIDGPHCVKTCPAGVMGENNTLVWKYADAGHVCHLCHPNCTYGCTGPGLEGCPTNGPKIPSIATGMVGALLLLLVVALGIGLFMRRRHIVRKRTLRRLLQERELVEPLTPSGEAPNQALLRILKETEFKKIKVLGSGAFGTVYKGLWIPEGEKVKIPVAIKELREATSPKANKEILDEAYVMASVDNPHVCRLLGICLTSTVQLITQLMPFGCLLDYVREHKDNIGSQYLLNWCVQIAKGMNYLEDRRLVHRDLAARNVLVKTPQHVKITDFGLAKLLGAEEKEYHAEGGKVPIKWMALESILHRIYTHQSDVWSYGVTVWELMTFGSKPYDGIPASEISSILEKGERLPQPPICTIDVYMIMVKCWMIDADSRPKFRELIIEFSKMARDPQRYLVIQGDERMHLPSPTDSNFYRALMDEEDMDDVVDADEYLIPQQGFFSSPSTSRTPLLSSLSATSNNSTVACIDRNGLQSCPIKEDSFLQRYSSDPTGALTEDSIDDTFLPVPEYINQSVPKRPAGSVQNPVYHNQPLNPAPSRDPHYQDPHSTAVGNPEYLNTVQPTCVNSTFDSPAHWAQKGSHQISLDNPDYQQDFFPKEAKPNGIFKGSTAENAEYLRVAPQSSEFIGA

Structure (SMILES)	IC50 [1]	IC50 [3]	ED50 [2]	inhibitor of EGF receptor tyrosine kinase [4]	growth of carcinoma not expressing EGF receptor tyrosine kinase [5]	growth of transplanted carcinoma expressing EGF receptor tyrosine kinase [6]
COc1cc2ncnc(Nc3ccc(C(=O)c4ccccc4)c(Cl)c3)c2cc1OC.Cl [4-(4-benzoyl-3-chloroanilino)-6,7-dimethoxyquinazoline hydrochloride salt]	30 nM	380 nM	< 5 mg/kg			
COc1cc2ncnc(Nc3cccc(Br)c3)c2cc1OC [4-(3'-bromoanilino)-6,7-dimethoxyquinazoline]				highly potent inhibitor		
COc1cc2ncnc(Nc3ccc(Sc4nccn4C)c(Cl)c3)c2cc1OC [4-[3-chloro-4-(1-methylimidazol-2-ylthio)anilino]-6,7-dimethoxyquinazolinedihydrochloride salt]	7 nM	200 nM	< 12.5 mg/kg			
COc1cc2ncnc(Nc3ccc(Cc4ccccc4)c(Cl)c3)c2cc1OC.I [4-(4-benzyl-3-chloroanilino)-6,7-dimethoxyquinazoline hydroiodide salt]	100 nM	1200 nM	< 12.5 mg/kg			
COc1cc2ncnc(Nc3ccc(Sc4ccccc4)c(Cl)c3)c2cc1OC [4-(3-chloro-4-phenylthioanilino)-6,7-dimethoxyquinazoline]	80 nM	1300 nM	12.5 mg/kg			
O=CN/C=C/c1cc(O)ccc1O [erbstatin]					without effect on the growth	specifically attenuates the growth

Continued, in another order:

IC50 [1]	IC50 [3]	Structure (SMILES)	ED50 [2]	inhibitor of EGF receptor tyrosine kinase [4]	growth of carcinoma not expressing EGF receptor tyrosine kinase [5]	growth of transplanted carcinoma expressing EGF receptor tyrosine kinase [6]
40 nM	930 nM	COc1cc2ncnc(Nc3ccc(OCc4ccccn4)c(C)c3)c2cc1OC.Cl.Cl [6,7-dimethoxy-4-[3-methyl-4-(2-pyridylmethoxy)anilino]quinazoline dihydrochloride salt]	5 mg/kg			
66 nM	430 nM	COc1cc2ncnc(Nc3ccc(OCc4ccccn4)c(C)c3)c2cc1OCCCN(C)C [6-(3-dimethylaminopropoxy)-7-methoxy-4-[3-methyl-4-(2-pyridylmethoxy)anilino]quinazoline]				
450 nM	2090 nM	COc1cc2ncnc(Nc3ccc(OCc4ccccn4)c(C)c3)c2cc1OCCCN1CCOCC1 [7-methoxy-4-[3-methyl-4-(2-pyridylmethoxy)anilino]-6-(3-morpholinopropoxy)quinazoline]				
